4 compounds from US7691382B2, “Antiviral polypeptides comprising tandem repeats of APOE 141-149 and variants thereof” (priority 2003, dated 2010) can be followed below.

Several values for one entry are separate records, joined by “and”; a condition that tells them apart may be missing. Equal values may be shown once. Read-outs that look alike come from different tables or passages of the source. Peptide text beside a SMILES is read from it. Bounds are passed on as bounds.

In test [1] the test system is HSV1. The experiment in a line: HSV1 plaque formation in Vero cells (Example 1). Format: cell-based, Human herpes simplex virus type 1. Particulars: for HSV1 plaque formation in Vero cells, plaque count, wells 1-4: 1 hour; for HSV1 plaque formation in Vero cells, Mean ± sd: untreated 107 ± 14.2. How it is done: FIG. 1 and table 1 show typical results for the test for anti-HSV1 activity. The assay involved treating confluent Vero cells in 24-well plates with medium containing virus and varying amounts of peptide for one hour, followed by removal of this inoculum, and addition of viscous ‘overlay’ medium, containing 0.2% high viscosity carboxymethylcellulose. The overlay medium only allows infection of those cells immediately adjacent to an infected cell. After 2 days incubation and then fixation and staining, small patches of infected cells (or ‘plaques’) are visible, which are counted. Each of these corresponds to the infection of a single cell during the one hour inoculation. ApoE141-149dp produced a 40% reduction in plaque number at a concentration of around 20 μM. Note the peptide was only present in the experimental system for 1 hour.

For the next test, the system named is HSV2. Kind of test: HSV2 plaque formation in HEp-2 cells (Example 1). It is filed as cell-based, Human herpes simplex virus type 2. Particulars: for HSV2 plaque formation in HEp-2 cells, plaque count, wells 1-4: 1 hour; for HSV2 plaque formation in HEp-2 cells, Mean ± sd: untreated 152 ± 10.7. How it is done: FIG. 2 and table 2 show typical results for the test for anti-HSV2 activity. The assay was carried out as for the anti-HSV1 assay, except Hep-2 cells were used rather than Vero cells. ApoE141-149dp produced a 50% reduction in plaque number at a concentration of around 20 μM. Again note that the peptide was only present in the experimental system for 1 hour.

Test [2] relates to HSV1. Format: cell-based, Human herpes simplex virus type 1. Conditions: for efficacy for reducing HSV1 infectivity (in words): Examples 2 and 3. The method, boiled down: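 Plaque reduction in Vero monolayers: ~100 pfu HSV1 pre-mixed 10 min at 37 °C with acetylated/amidated peptides in 0.5% FCS medium, inoculated 60–80 min, then carboxymethylcellulose overlay for 22 or 40 h. Plaques counted after fixing and carbol fuchsin staining; IC50 from % of control versus peptide concentration.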

The test system of the next test is HIV-1. Conditions: for activity against HIV, significance by ANOVA (in words): FIG. 3, acutely infected U937 cells; for reduction in infectivity (HIV): at 20 μM; for reduction in infectivity (HIV) / % Decrease in HIV p24 Production, Mean ± sd / % Decrease in HIV p24 Production, Exp. 1-3: U937 cells, 7 days.
The subject of a further test is HSV2 clinical isolates. Format: cell-based, Human herpes simplex virus type 2. How it is done:
Plaque assays were performed. The methodology was as described in previous Examples for HSV1 plaque assays (including usage of Vero cells) except HSV2 clinical isolates (provided by Prof. Anthony Hart of Liverpool University) were employed instead.

Setting [3] is: at a concentration of around 20 μM, peptide present 1 hour.
[4] abbreviates: peptide 5 μM in virus inoculum, listed as ApoE141-149dp.
Where [5] appears, read: peptide 10 μM in virus inoculum, listed as ApoE141-149dp.
Setting [6] is: peptide 20 μM in virus inoculum, listed as ApoE141-149dp.
Setting [7] is: peptide 30 μM in virus inoculum, listed as ApoE141-149dp.
[8] abbreviates: peptide 40 μM in virus inoculum, listed as ApoE141-149dp.
[9] abbreviates: peptide 10 μM in virus inoculum.
[10] abbreviates: peptide 20 μM in virus inoculum.
The mark [11] stands for this setting: peptide 30 μM in virus inoculum.
[12] abbreviates: peptide 40 μM in virus inoculum.

Description for HIV-1: The assay was carried out by incubating HIV infected U937 cells in the presence of various levels of peptide for 7 days, followed by assay for levels of the HIV protein p24 in the cells using an Enzyme Linked Immunoabsorbant Assay (ELISA) technique.

As to `CC(C)C[C@H](NC(=O)[C@H](CC(C)C)NC(=O)[C@H](CCCNC(=N)N)NC(=O)[C@H](CCCCN)NC(=O)[C@H](CCCNC(=N)N)NC(=O)[C@H](CC(C)C)NC(=O)[C@H](CCCCN)NC(=O)[C@H](CCCNC(=N)N)NC(=O)[C@H](CC(C)C)NC(=O)[C@H](CC(C)C)NC(=O)[C@H](CC(C)C)NC(=O)[C@H](CCCNC(=N)N)NC(=O)[C@H](CCCCN)NC(=O)[C@H](CCCNC(=N)N)NC(=O)[C@H](CC(C)C)NC(=O)[C@H](CCCCN)NC(=O)[C@H](CCCNC(=N)N)NC(=O)[C@@H](N)CC(C)C)C(=O)O` [GIN 1] (H-LRKLRKRLLLRKLRKRLL-OH), the “reduction in plaque number (HSV1)” value in the test with HSV1 [1] (setting [3]) came out at 40%. The “HSV1 plaque formation in Vero cells, plaque count, wells 1-4” value with HSV1 [1] (setting [4]) was 129 and 106 and 103 and 100; in the test with HSV1 [1] (setting [5]), 73 and 87 and 76 and 89; in the test with HSV1 [1] (setting [6]), 68 and 67 and 63; with HSV1 [1] (setting [7]), 72 and 71 and 56; in the test with HSV1 [1] (setting [8]), 64 and 65 and 53 and 68. The “HSV1 plaque formation in Vero cells, Mean ± sd” value in the test on HSV1 [1] (peptide 5 μM) was determined as 110 ± 13.2; in the test with HSV1 [1] (peptide 10 μM) it was 81 ± 7.9; in the test with HSV1 [1] (peptide 20 μM), 65 ± 2.6; with HSV1 [1] (peptide 30 μM) it was 66 ± 9.0; in the test with HSV1 [1] (peptide 40 μM), 63 ± 6.6. Further, the “reduction in plaque number (HSV2)” value in the test with HSV2 (setting [3]) was found to be 50%. Also, the “HSV2 plaque formation in HEp-2 cells, plaque count, wells 1-4” value was 160 and 134 and 140 and 130 in the test with HSV2 (setting [4]); 125 and 113 and 131 and 132 in the test with HSV2 (setting [5]); 82 and 72 and 73 and 81 in the test with HSV2 (setting [6]); 76 and 77 and 71 and 72 with HSV2 (setting [7]); 51 and 59 and 69 and 49 in the test on HSV2 (setting [8]). Also, the “HSV2 plaque formation in HEp-2 cells, Mean ± sd” value in the test on HSV2 (peptide 5 μM) stood at 141 ± 13.3; in the test on HSV2 (peptide 10 μM), 125 ± 8.7; in the test with HSV2 (peptide 20 μM), 77 ± 5.2; with HSV2 (peptide 30 μM) it was 74 ± 2.9; with HSV2 (peptide 40 μM), 57 ± 9.1. Also, in the test on HSV1 [2], the 50% inhibitory concentration (IC50) stood at 16.5 µM. Further, the “efficacy for reducing HSV1 infectivity (in words)” value with HSV1 [2] is listed as “good efficacy”. Besides, the “activity against HIV, significance by ANOVA (in words)” value with HIV-1 is given as “significantly active”. For the same compound, the “reduction in infectivity (HIV)” value in the test on HIV-1 was determined as 95%. Moreover, the “% Decrease in HIV p24 Production, Mean ± sd” value with HIV-1 (peptide 10 μM) is recorded as 83.94 ± 11.84%; in the test on HIV-1 (peptide 20 μM), 95.02 ± 1.89%; in the test with HIV-1 (peptide 30 μM) it was 90.78 ± 4.49%; in the test with HIV-1 (peptide 40 μM), 95.87 ± 0.81%; with HIV-1 (peptide 50 μM), 94.79 ± 1.34%. For the same compound, the “% Decrease in HIV p24 Production, Exp. 1-3” value is 91.66% and 70.31% and 89.85% with HIV-1 (peptide 10 μM, listed as ApoE141-149dp); 96.87% and 95.08% and 93.10% with HIV-1 (peptide 20 μM, listed as ApoE141-149dp); 95.94% and 88.63% and 87.77% in the test on HIV-1 (peptide 30 μM, listed as ApoE141-149dp); 96.80% and 95.47% and 95.33% in the test with HIV-1 (peptide 40 μM, listed as ApoE141-149dp); 95.73% and 93.25% and 95.38% with HIV-1 (peptide 50 μM, listed as ApoE141-149dp).
On to `CC(=O)N[C@@H](Cc1c[nH]c2ccccc12)C(=O)N[C@@H](CCCNC(=N)N)C(=O)N[C@@H](CCCCN)C(=O)N[C@@H](Cc1c[nH]c2ccccc12)C(=O)N[C@@H](CCCNC(=N)N)C(=O)N[C@@H](CCCCN)C(=O)N[C@@H](CCCNC(=N)N)C(=O)N[C@@H](Cc1c[nH]c2ccccc12)C(=O)N[C@@H](Cc1c[nH]c2ccccc12)C(=O)N[C@@H](Cc1c[nH]c2ccccc12)C(=O)N[C@@H](CCCNC(=N)N)C(=O)N[C@@H](CCCCN)C(=O)N[C@@H](Cc1c[nH]c2ccccc12)C(=O)N[C@@H](CCCNC(=N)N)C(=O)N[C@@H](CCCCN)C(=O)N[C@@H](CCCNC(=N)N)C(=O)N[C@@H](Cc1c[nH]c2ccccc12)C(=O)N[C@@H](Cc1c[nH]c2ccccc12)C(N)=O` [GIN 7] (Ac-WRKWRKRWWWRKWRKRWW-NH2), for which the concentration for half-maximal inhibition (IC50) in the test on HSV2 clinical isolates was less than 3.3 µM.
As for `CC(=O)N[C@@H](Cc1c[nH]c2ccccc12)C(=O)N[C@@H](CCCNC(=N)N)C(=O)N[C@@H](CCCCN)C(=O)N[C@@H](Cc1c[nH]c2ccccc12)C(=O)N[C@@H](CCCNC(=N)N)C(=O)N[C@@H](CCCCN)C(=O)N[C@@H](CCCNC(=N)N)C(=O)N[C@@H](Cc1c[nH]c2ccccc12)C(=O)N[C@@H](Cc1c[nH]c2ccccc12)C(=O)N[C@@H](CC(C)C)C(=O)N[C@@H](CCCNC(=N)N)C(=O)N[C@@H](CCCCN)C(=O)N[C@@H](CC(C)C)C(=O)N[C@@H](CCCNC(=N)N)C(=O)N[C@@H](CCCCN)C(=O)N[C@@H](CCCNC(=N)N)C(=O)N[C@@H](CC(C)C)C(=O)N[C@@H](CC(C)C)C(N)=O` [GIN 34] (Ac-WRKWRKRWWLRKLRKRLL-NH2), in the test on HSV1 [2], half-maximal inhibition (IC50) required 6 µM and the “efficacy for reducing HSV1 infectivity (in words)” value is given as “also had efficacy”. The IC50 in the test with HSV2 clinical isolates was less than 3.3 µM.
Consider “ApoE263-286: apoE263-286 peptide tested alongside apoE141-149dp in Example 1 (SWFEPLVEDMQRQWAGLVEKVQAA; UniProt P02649 281-304, looked up, fragment) [reference compound]”, for which the “HSV1 plaque formation in Vero cells, plaque count, wells 1-4” value in the test on HSV1 [1] (peptide 5 μM in virus inoculum) is 113 and 119 and 122 and 126; in the test on HSV1 [1] (setting [9]), 116 and 124 and 102; in the test with HSV1 [1] (setting [10]) it was 148 and 112 and 133 and 114; in the test on HSV1 [1] (setting [11]), 134 and 109 and 114 and 125; with HSV1 [1] (setting [12]) it was 120 and 113 and 125 and 144. Moreover, the “HSV1 plaque formation in Vero cells, Mean ± sd” value with HSV1 [1] (peptide 5 μM) is given as 120 ± 5.5; with HSV1 [1] (peptide 10 μM), 114 ± 11.1; with HSV1 [1] (peptide 20 μM) it was 127 ± 17.0; in the test on HSV1 [1] (peptide 30 μM), 121 ± 11.2; with HSV1 [1] (peptide 40 μM), 126 ± 11.2. Moreover, the “HSV2 plaque formation in HEp-2 cells, plaque count, wells 1-4” value was 135 and 160 and 161 and 152 in the test with HSV2 (peptide 5 μM in virus inoculum); 157 and 121 and 151 and 134 in the test with HSV2 (setting [9]); 118 and 150 and 182 and 134 in the test with HSV2 (setting [10]); 118 and 117 and 103 and 159 in the test with HSV2 (setting [11]); 132 and 144 and 125 and 124 in the test with HSV2 (setting [12]). Further, the “HSV2 plaque formation in HEp-2 cells, Mean ± sd” value in the test on HSV2 (peptide 5 μM) turned out to be 152 ± 12.0; with HSV2 (peptide 10 μM), 141 ± 16.1; in the test with HSV2 (peptide 20 μM), 146 ± 27.3; in the test on HSV2 (peptide 30 μM) it was 124 ± 24.2; with HSV2 (peptide 40 μM), 131 ± 24.2. Moreover, the “activity against HIV, significance by ANOVA (in words)” value in the test with HIV-1 is “did not reach significance”. In the test with HIV-1, the “reduction in infectivity (HIV)” value is recorded as 20%. Moreover, the “% Decrease in HIV p24 Production, Mean ± sd” value is recorded as 23.21 ± 12.79% with HIV-1 (peptide 10 μM); 22.77 ± 13.07% with HIV-1 (peptide 20 μM); 35.85 ± 7.21% with HIV-1 (peptide 30 μM); 38.87 ± 12.70% in the test with HIV-1 (peptide 40 μM); 40.16 ± 6.25% in the test on HIV-1 (peptide 50 μM). For the same compound, the “% Decrease in HIV p24 Production, Exp. 1-3” value is 37.94% and 27.83% and 41.78% with HIV-1 (peptide 30 μM); 33.36% and 41.45% and 45.66% in the test on HIV-1 (peptide 50 μM).
